Assay results as given in patent publication US10633419B2, “Immunomodulators” (BRISTOL-MYERS SQUIBB COMPANY, priority 2014, dated 2020).
pIC50: −log10 of the molar value. Starred links: 1 amine or outer side, 2 acyl side, 3 side chain; linkers in the order of their positions; H or OH if unused. Positions of bridges follow the written chain, without caps; N, C: chain ends. Non-standard residues stand in square brackets, D forms with d. Residues, ends and D or L forms follow the SMILES beside them. Groups on a side chain read outwards from the residue. *: point of attachment. X6 = O=C(O)CCCCCCCCCCCCCCCCC(=O)N[C@@H](CCC(=O)NCCCOCCOCCOCCCN*)C(=O)O; Ala(1-CH2COOH-inden-3-yl) = N[C@@H](CC1=CC(CC(=O)O)c2ccccc21)C(=O)O; Trp(1-CH2COOH) = N[C@@H](Cc1cn(CC(=O)O)c2ccccc12)C(=O)O; X23 = O=C(CCCCOCCOCCOCCCN[*:3])C[C@H](N[*:1])C(=O)[*:2]; X14 = O=C(O)CCCCCCCCCCNC(=O)CCC(=O)NCCCOCCOCCOCCCN*; C16 diacid = O=C(O)CCCCCCCCCCCCCCC(=O)*; γGlu = O=C(O)[C@H](CCC(=O)[*:2])N[*:1]; d(cisHyp) = O=C(O)[C@H]1C[C@@H](O)CN1; NH(CH2)12COOH = O=C(O)CCCCCCCCCCCCN*; Hyp = O=C(O)[C@@H]1C[C@@H](O)CN1; NMeNle = CCCC[C@H](NC)C(=O)O; NMeA = CN[C@@H](C)C(=O)O; Aun = NCCCCCCCCCCC(=O)O; Dab = NCC[C@H](N)C(=O)O; Dap = NC[C@H](N)C(=O)O

biological target: T1, PD-L1 (Homo sapiens, UniProt Q9NZQ7); assay: PD-1/PD-L1 Homogenous Time-Resolved Fluorescence (HTRF) binding assay (PD-1-Ig/PD-L1-His); settings: inhibition of PD-1-Ig binding to PD-L1-TVMV-His; value given as number; read-out: HTRF IC50
T1 construct: hPDL1(19-239)-TVMV-His; made in house; host or cells: HEK293T
Description: The ability of the macrocyclic peptides of the present disclosure to bind to PD-L1 was investigated using a PD-1/PD-L1 Homogenous Time-Resolved Fluorescence (HTRF) binding assay.
Homogenous Time-Resolved Fluorescence (HTRF) Assays of Binding of Soluble PD-1 to Soluble PD-L1. Soluble PD-1 and soluble PD-L1 refers to proteins with carboxyl-end truncations that remove the transmembrane-spanning regions and are fused to heterologous sequences, specifically the Fc portion of the human immunoglobuling G sequence (Ig) or the hexahistidine epitope tag (His). All binding studies were performed in an HTRF assay buffer consisting of dPBS supplemented with 0.1% (w/v) bovine serum albumin and 0.05% (v/v) Tween-20. For the PD-1-Ig/PD-L1-His binding assay, inhibitors were pre-incubated with PD-L1-His (10 nM final) for 15 m in 4 μl of assay buffer, followed by addition of PD-1-Ig (20 nM final) in 1 μl of assay buffer and further incubation for 15m. PD-L1 fusion proteins from either human, cynomologous macaques, mouse, or other species were used. HTRF detection was achieved using europium crypate-labeled anti-Ig monoclonal antibody (1 nM final) and allophycocyanin (APC) labeled anti-His monoclonal antibody (20 nM final). Antibodies were diluted in HTRF detection buffer and 5 μl was dispensed on top of binding reaction. The reaction was allowed to equilibrate for 30 minutes and signal (665 nm/620 nm ratio) was obtained using an EnVision fluorometer. Additional binding assays were established between PD-1-Ig/PD-L2-His (20 and 5 nM, respectively), CD80-His/PD-L1-Ig (100 and 10 nM, respectively) and CD80-His/CTLA4-Ig (10 and 5 nM, respectively). Binding/competition studies between biotinylated Compound No. 71 and human PD-L1-His were performed as follows. Macrocyclic peptide inhibitors were pre-incubated with PD-L1-His (10 nM final) for 60 minutes in 4 μl of assay buffer followed by addition of biotinylated Compound No. 71 (0.5 nM final) in 1 μl of assay buffer. Binding was allowed to equilibrate for 30 minutes followed by addition of europium crypated labeled Streptavidin (2.5 pM final) and APC-labeled anti-His (20 nM final) in 5 μl of HTRF buffer. The reaction was allowed to equilibrate for 30m and signal (665 nm/620 nm ratio) was obtained using an EnVision fluorometer.
Recombinant Proteins. Carboxyl-truncated human PD-1 (amino acids 25-167) with a C-terminal human Ig epitope tag [hPD-1 (25-167)-3S-IG] and human PD-L1 (amino acids 18-239) with a C-terminal His epitope tag [hPD-L1(19-239)-tobacco vein mottling virus protease cleavage site (TVMV)-His] were expressed in HEK293T cells and purified sequentially by recombinant Protein A affinity chromatography and size exclusion chromatography. Human PD-L2-His (Sino Biologicals), CD80-His (Sino Biologicals), CTLA4-Ig (RnD Systems) were all obtained through commercial sources.

T1 sequence (Q9NZQ7 with tags, fused parts or gaps): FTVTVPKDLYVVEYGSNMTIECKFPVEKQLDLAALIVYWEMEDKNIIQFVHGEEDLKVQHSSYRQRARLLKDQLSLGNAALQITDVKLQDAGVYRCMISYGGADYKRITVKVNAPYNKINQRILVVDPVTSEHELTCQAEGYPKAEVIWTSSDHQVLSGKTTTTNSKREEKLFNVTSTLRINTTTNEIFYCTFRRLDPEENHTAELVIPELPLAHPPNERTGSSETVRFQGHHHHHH

For `CCCC[C@H]1C(=O)N(C)[C@@H](CCCC)C(=O)N[C@@H](CC(C)C)C(=O)N[C@H](C(=O)NCCCOCCOCCOCCCNC(=O)CCC(=O)NCCCCCCCCCCC(=O)O)CSCC(=O)N[C@@H](Cc2ccc(O)cc2)C(=O)N(C)[C@@H](C)C(=O)N[C@@H](CC(N)=O)C(=O)N2CCC[C@H]2C(=O)N[C@@H](Cc2cnc[nH]2)C(=O)N[C@@H](CCC(=O)O)C(=O)N2C[C@H](O)C[C@H]2C(=O)N[C@@H](Cc2c[nH]c3ccccc23)C(=O)N[C@@H](CCN)C(=O)N[C@@H](Cc2cn(CC(=O)O)c3ccccc23)C(=O)N1C` [Example 11075] ({CH2CO}-Y[NMeA]NPHE[Hyp]W[Dab][Trp(1-CH2COOH)][NMeNle][NMeNle]LC-X14; thioether N-14), the pIC50 was 8.15.

same assay, conditions: inhibition of PD-1-Ig binding to PD-L1-TVMV-His; value given as range class; read-out: HTRF IC50

Compared with `CCCC[C@H]1C(=O)N(C)[C@@H](CCCC)C(=O)N[C@@H](CC(C)C)C(=O)N[C@H](C(=O)NCC(=O)NCC(=O)NCCCCCCCCCCC(=O)O)CSCC(=O)N[C@@H](Cc2ccc(O)cc2)C(=O)N(C)[C@@H](C)C(=O)N[C@@H](CC(N)=O)C(=O)N2CCC[C@H]2C(=O)N[C@@H](Cc2cnc[nH]2)C(=O)N[C@@H](CCC(=O)O)C(=O)N2C[C@H](O)C[C@H]2C(=O)N[C@@H](Cc2c[nH]c3ccccc23)C(=O)N[C@@H](CCN)C(=O)N[C@@H](CC2=CC(CC(=O)O)c3ccccc32)C(=O)N1C` (some centres unmarked) [Example 11078] ({CH2CO}-Y[NMeA]NPHE[Hyp]W[Dab][Ala(1-CH2COOH-inden-3-yl)][NMeNle][NMeNle]LCGG[Aun]-OH; thioether N-14), `CCCC[C@H]1C(=O)N(C)[C@@H](CCCC)C(=O)N[C@@H](CC(C)C)C(=O)N[C@H](C(=O)NCC(=O)N[C@@H](CC(=O)O)C(=O)NCCCCCCCCCCCCC(=O)O)CSCC(=O)N[C@@H](Cc2ccc(O)cc2)C(=O)N(C)[C@@H](C)C(=O)N[C@@H](CC(=O)O)C(=O)N2CCC[C@H]2C(=O)N[C@@H](Cc2cnc[nH]2)C(=O)N[C@@H](CCCCN)C(=O)N2C[C@H](O)C[C@H]2C(=O)N[C@@H](Cc2c[nH]c3ccccc23)C(=O)N[C@@H](CCCCN)C(=O)N[C@@H](Cc2cn(CC(=O)O)c3ccccc23)C(=O)N1C` [Example 11213] ({CH2CO}-Y[NMeA]DPHK[Hyp]WK[Trp(1-CH2COOH)][NMeNle][NMeNle]LCGD-{NH(CH2)12COOH}; thioether N-14) is lower in pIC50: 8.00 to 9.52 for the first, 7.00 to 8.00 for the second. The first is the more potent here.

First: CCCC[C@H]1C(=O)N(C)[C@@H](CCCC)C(=O)N[C@@H](CC(C)C)C(=O)N[C@H](C(=O)NCC(=O)N[C@@H](CC(=O)O)C(=O)NCCCOCCOCCOCCCNC(=O)CC[C@H](NC(=O)CCCCCCCCCCCCCCCCC(=O)O)C(=O)O)CSCC(=O)N[C@@H](Cc2ccc(O)cc2)C(=O)N(C)[C@@H](C)C(=O)N[C@@H](CC(N)=O)C(=O)N2CCC[C@H]2C(=O)N[C@@H](CN)C(=O)N[C@@H](CC(C)C)C(=O)N2C[C@H](O)C[C@H]2C(=O)N[C@@H](Cc2c[nH]c3ccccc23)C(=O)N[C@@H](CCN)C(=O)N[C@@H](Cc2cn(CC(=O)O)c3ccccc23)C(=O)N1C [Example 11224] ({CH2CO}-Y[NMeA]NP[Dap]L[Hyp]W[Dab][Trp(1-CH2COOH)][NMeNle][NMeNle]LCGD-X6; thioether N-14)
Second: CCCC[C@H]1C(=O)N(C)[C@@H](CCCC)C(=O)N[C@@H](CC(C)C)C(=O)N[C@H](C(=O)NCC(=O)N[C@@H](CC(=O)CCCCOCCOCCOCCCNC(=O)CC[C@H](NC(=O)CCCCCCCCCCCCCCC(=O)O)C(=O)O)C(=O)O)CSCC(=O)N[C@@H](Cc2ccc(O)cc2)C(=O)N(C)[C@@H](C)C(=O)N[C@@H](CC(N)=O)C(=O)N2CCC[C@H]2C(=O)N[C@@H](CN)C(=O)N[C@@H](CC(C)C)C(=O)N2C[C@H](O)C[C@@H]2C(=O)N[C@@H](Cc2c[nH]c3ccccc23)C(=O)N[C@@H](CCN)C(=O)N[C@@H](Cc2cn(CC(=O)O)c3ccccc23)C(=O)N1C [Example 11158] ({CH2CO}-Y[NMeA]NP[Dap]L[d(cisHyp)]W[Dab][Trp(1-CH2COOH)][NMeNle][NMeNle]LCG[X23]([γGlu-C16 diacid])-OH; thioether N-14)
The pIC50 of the first is higher: 8.00 to 9.52 for the first, 7.00 to 8.00 for the second. The first is the more potent here.
